# How the values were obtained:
# [1] = molecular target: T1, recombinant human MMP-13 (Homo sapiens, UniProt P45452); test: In vitro metalloprotease inhibition, fluorogenic peptide assay; type: biochemical; conditions: for IC50: APMA-activated enzyme, MCA peptide substrate 4 μM, room temperature, pH 7.5
# T1 construct: made in house
# Procedure: (§1) Briefly, 4-aminophenylmercuric acetate (APMA) or trypsin activated MMPs were incubated with various concentrations of the inhibitor compound at room temperature for 5 minutes.
# (§2) More specifically, recombinant human MMP-13 and MMP-1 enzymes were prepared in laboratories of the assignee. MMP-13 was expressed in baculovirus as a proenzyme, and purified first over a heparin agarose column and then over a chelating zinc chloride column. The proenzyme was activated by APMA for use in the assay. MMP-1 expressed in transfected HT-1080 cells was provided by Dr. Howard Welgus of Washington University, St. Louis, Mo. The enzyme was also activated using APMA and was then purified over a hydroxamic acid column.
# (§3) MCA-ProLeuGlyLeuDpaAlaArgNH^2, wherein MCA is methoxycoumarin and Dpa is 3-(2,4-dinitrophenyl)-L-2,3-diaminopropionyl alanine.
# (§4) The buffer used for assays contained 100 mM Tris-HCl, 100 mM NaCl, 10 mM CaCl2 and 0.05 percent polyethyleneglycol (23) lauryl ether at a pH value of 7.5.
# [2] = molecular target: T2, recombinant human MMP-1 (Homo sapiens, UniProt P03956); test: as above; type: biochemical; conditions: APMA-activated enzyme, MCA peptide substrate 4 μM, room temperature, pH 7.5
# T2 construct: made in house; host or cells: transfected HT-1080 cells
# T2 sequence (P03956 100-469): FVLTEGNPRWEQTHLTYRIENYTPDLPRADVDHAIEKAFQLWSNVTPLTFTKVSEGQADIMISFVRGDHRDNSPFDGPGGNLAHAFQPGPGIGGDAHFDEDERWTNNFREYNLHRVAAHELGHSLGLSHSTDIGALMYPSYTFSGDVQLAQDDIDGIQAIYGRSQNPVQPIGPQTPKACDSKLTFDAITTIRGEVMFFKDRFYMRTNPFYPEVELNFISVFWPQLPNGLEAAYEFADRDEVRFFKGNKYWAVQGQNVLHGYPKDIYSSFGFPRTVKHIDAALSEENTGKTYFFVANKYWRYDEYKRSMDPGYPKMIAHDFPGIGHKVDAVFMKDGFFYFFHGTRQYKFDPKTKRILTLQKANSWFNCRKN
# Procedure: as §1, §2, §3, §4
# [3] = molecular target: MMP-9 (Homo sapiens, UniProt P14780); test: as above; type: biochemical; conditions: MCA peptide substrate 4 μM, room temperature, pH 7.5
# Procedure: as §1, §3, §4
# [4] = molecular target: T3, MMP-2 (Homo sapiens, UniProt P08253); test: as above; type: biochemical; conditions: MCA peptide substrate 4 μM, room temperature, pH 7.5
# T3 sequence (P08253 110-660): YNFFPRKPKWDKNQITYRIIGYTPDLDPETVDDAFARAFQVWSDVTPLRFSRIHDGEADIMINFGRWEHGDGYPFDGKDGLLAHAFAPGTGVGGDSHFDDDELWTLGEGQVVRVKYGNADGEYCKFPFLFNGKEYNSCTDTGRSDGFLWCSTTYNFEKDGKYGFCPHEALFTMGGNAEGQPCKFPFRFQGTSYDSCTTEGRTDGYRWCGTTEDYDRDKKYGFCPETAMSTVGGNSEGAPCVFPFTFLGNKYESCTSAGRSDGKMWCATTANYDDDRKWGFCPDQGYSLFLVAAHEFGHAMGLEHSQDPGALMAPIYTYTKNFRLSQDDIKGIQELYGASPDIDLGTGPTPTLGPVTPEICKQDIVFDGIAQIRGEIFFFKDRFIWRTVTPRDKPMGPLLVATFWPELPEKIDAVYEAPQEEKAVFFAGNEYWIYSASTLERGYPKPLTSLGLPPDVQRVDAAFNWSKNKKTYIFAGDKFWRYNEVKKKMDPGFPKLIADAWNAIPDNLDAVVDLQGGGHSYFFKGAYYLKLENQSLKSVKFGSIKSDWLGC
# Procedure: as §1, §3, §4
# [5] = molecular target: MMP-8 (Homo sapiens, UniProt P22894); test: as above; type: biochemical; conditions: MCA peptide substrate 4 μM, room temperature, pH 7.5
# Procedure: as §1, §3, §4
# [6] = molecular target: MMP-3 (Homo sapiens, UniProt P08254); test: as above; type: biochemical; conditions: MCA peptide substrate 4 μM, room temperature, pH 7.5
# Procedure: as §1, §3, §4
# [7] = test system: angiogenesis in the cornea of a mouse; test: In vivo angiogenesis assay (corneal micropocket assay); design: species or system mouse (C57Bl/6); conditions: area of corneal neovascularization, bFGF pellet, dosed daily, scored at day five; exemplary dose 50 mg/kg bid, po
# Procedure: The study of angiogenesis depends on a reliable and reproducible model for the stimulation and inhibition of a neovascular response. The corneal micropocket assay provides such a model of angiogenesis in the cornea of a mouse. See, A Model of Angiogenesis in the Mouse Cornea; Kenyon, B M, et al., Investigative Ophthalmology & Visual Science, Jul.
# In this assay, uniformly sized Hydron™ pellets containing bFGF and sucralfate were prepared and surgically implanted into the stroma mouse cornea adjacent to the temporal limbus. The pellets were formed by making a suspension of 20 μL sterile saline containing […] recombinant bFGF, 10 mg of sucralfate and 10 μL of 12 percent Hydron™ in ethanol. The slurry was then deposited on a 10×10 mm piece of sterile nylon mesh. After drying, the nylon fibers of the mesh were separated to release the pellets.
# The corneal pocket was made by anesthetizing a 7 week old C57Bl/6 female mouse, then proptosing the eye with a jeweler's forceps. Using a dissecting microscope, a central, intrastromal linear keratotomy of approximately 0.6 mm in length was performed with a #15 surgical blade, parallel to the insertion of the lateral rectus muscle. Using a modified cataract knife, a lamellar micropocket was dissected toward the temporal limbus. The pocket was extended to within 1.0 mm of the temporal limbus. A single pellet was placed on the corneal surface at the base of the pocket with a jeweler's forceps. The pellet was then advanced to the temporal end of the pocket. Antibiotic ointment was then applied to the eye.
# Mice were dosed on a daily basis for the duration of the assay. Dosing of the animals was based on bioavailability and overall potency of the compound. An exemplary dose is 50 mg/kg bid, po. Neovascularization of the corneal stroma begins at about day three and was permitted to continue under the influence of the assayed compound until day five. At day five, the degree of angiogenic inhibition was scored by viewing the neovascular progression with a slit lamp microscope.
# The mice were anesthetized and the studied eye was once again proptosed. The maximum vessel length of neovascularization, extending from the limbal vascular plexus toward the pellet was measured. In addition, the contiguous circumferential zone of neovascularization was measured as clock hours, where 30 degrees of arc equals one clock hour. The area of angiogenesis was calculated as follows. [formula]
# The studied mice were thereafter compared to control mice and the difference in the area of neovascularization was recorded.
# Sequence of MMP-9 (P14780 107-707 limits assumed, species assumed): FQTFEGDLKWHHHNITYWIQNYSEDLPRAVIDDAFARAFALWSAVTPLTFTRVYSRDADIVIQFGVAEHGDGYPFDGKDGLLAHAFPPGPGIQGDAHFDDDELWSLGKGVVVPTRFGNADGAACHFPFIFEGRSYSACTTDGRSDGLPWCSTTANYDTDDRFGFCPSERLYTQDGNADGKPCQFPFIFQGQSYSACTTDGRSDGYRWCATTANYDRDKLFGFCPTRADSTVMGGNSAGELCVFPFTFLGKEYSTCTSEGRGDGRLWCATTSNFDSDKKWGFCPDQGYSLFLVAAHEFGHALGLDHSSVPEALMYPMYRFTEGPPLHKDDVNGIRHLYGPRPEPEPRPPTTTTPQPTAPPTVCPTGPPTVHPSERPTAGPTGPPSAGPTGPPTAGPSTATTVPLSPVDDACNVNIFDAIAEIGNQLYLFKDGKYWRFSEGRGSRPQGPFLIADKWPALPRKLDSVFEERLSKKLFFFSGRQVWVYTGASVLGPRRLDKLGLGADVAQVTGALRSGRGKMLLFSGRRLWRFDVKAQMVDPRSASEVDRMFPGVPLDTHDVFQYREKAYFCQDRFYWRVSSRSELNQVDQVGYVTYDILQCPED
# Sequence of MMP-8 (P22894 101-467, species assumed): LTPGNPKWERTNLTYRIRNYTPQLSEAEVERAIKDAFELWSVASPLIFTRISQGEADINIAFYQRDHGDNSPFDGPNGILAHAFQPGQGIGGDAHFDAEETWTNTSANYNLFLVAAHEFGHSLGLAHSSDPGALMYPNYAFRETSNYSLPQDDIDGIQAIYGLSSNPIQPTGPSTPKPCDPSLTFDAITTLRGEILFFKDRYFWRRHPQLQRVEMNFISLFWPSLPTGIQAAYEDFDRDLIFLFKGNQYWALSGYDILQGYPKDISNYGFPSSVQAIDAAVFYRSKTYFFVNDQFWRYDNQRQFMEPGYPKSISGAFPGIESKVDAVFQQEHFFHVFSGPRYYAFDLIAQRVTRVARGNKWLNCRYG
# Sequence of MMP-3 (P08254 100-477, species assumed): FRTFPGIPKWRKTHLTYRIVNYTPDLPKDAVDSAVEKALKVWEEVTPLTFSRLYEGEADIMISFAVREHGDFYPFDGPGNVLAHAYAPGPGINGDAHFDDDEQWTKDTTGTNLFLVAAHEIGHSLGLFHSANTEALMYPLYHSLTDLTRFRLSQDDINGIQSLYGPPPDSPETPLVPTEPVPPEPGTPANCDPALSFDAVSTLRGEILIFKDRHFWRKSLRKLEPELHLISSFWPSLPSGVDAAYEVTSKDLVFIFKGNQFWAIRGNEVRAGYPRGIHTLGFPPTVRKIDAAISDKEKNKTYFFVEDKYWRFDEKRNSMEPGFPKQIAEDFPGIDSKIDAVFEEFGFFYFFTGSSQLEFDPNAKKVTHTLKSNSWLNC
SMILES,IC50 [1],IC50 [2],IC50 [3],IC50 [4],IC50 [5],IC50 [6],"ratio of inhibition of MMP-1 to inhibition of MMP-13, relative to the compound of opposite configuration ([1]; Example 1A versus Example 1B)",Percentage of Control [7],inhibitory activity against MMP-13 (in words) ([1]; discussion of Table 51)
"O=C(NO)[C@H](O)CS(=O)(=O)c1ccc(Oc2ccccc2)cc1 [Example 11, (S)—N,2-dihydroxy-3-[(4-phenoxyphenyl)sulfonyl]propanamide]",5 nM,7000 nM,66 nM,7 nM,,,,,
"Cc1ccc(Oc2ccc(S(=O)(=O)CC(O)(CN3CCOCC3)C(=O)NO)cc2)cc1C (stereo not drawn) [Example 7, α-[[[4-(3,4-dimethylphenoxy)-phenyl]sulfonyl]methyl]-N-2-dihydroxy-4-morpholineproanamide]",2.1 nM,> 10000 nM,13 nM,2 nM,4 nM,51.8 nM,,,
"C[C@@](O)(CS(=O)(=O)c1ccc(Oc2ccccc2)cc1)C(=O)NO [Example 1A, (S)—N,2-dihydroxy-2-methyl-3-[(4-phenoxyphenyl)sulfonyl]propanamide]",0.75 nM,1010 nM,1.7 nM,0.39 nM,,,about 2 times,62.7%,
"O=C(Nc1ccc(S(=O)(=O)CC(O)C(=O)NO)cc1)c1ccccc1 (stereo not shown) [Example 23, N-[4-[[2-hydroxy-3-(hydroxyamino)-3-oxopropyl]sulfonyl]phenyl]benzamide]",220 nM,> 10000 nM,1330 nM,2.8 nM,,,,,
"C[C@](O)(CS(=O)(=O)c1ccc(Oc2ccccc2)cc1)C(=O)NO [Example 1B, (R)—N,2-dihydroxy-2-methyl-3-[(4-phenoxyphenyl)sulfonyl]-propanamide]",21.5 nM,> 10000 nM,328 nM,11 nM,,,,49.3%,
"O=C(NO)[C@@H](O)CS(=O)(=O)c1ccc(Oc2ccccc2)cc1 [Example 10, (R)—N,2-dihydroxy-3-[(4-phenoxyphenyl)sulfonyl]propanamide]",1 nM,4000 nM,18 nM,0.4 nM,,,,,
"O=C(NO)C(O)CS(=O)(=O)c1ccc(Sc2ccccc2)cc1 (stereo not shown) [Example 12, N,2-dihydroxy-3-[[4-(phenylthio)phenyl]sulfonyl]propanamide]",3.7 nM,> 10000 nM,175 nM,2 nM,,,,,
"Cc1ccc(Oc2ccc(S(=O)(=O)CC(C)(O)C(=O)NO)cc2)cc1C (stereo not shown) [Example 5, 3-[[4-(3,4-dimethylphenoxy)phenyl]sulfonyl]-N,2-dihydroxy-2-methylpropanamide]",1.3 nM,> 10000 nM,3.4 nM,2.4 nM,2.5 nM,26.8 nM,,57.8%,
O=C(NO)C(O)(CO)CS(=O)(=O)c1ccc(Sc2ccccc2)cc1 (stereo not shown) [Example 13],5 nM,> 10000 nM,70 nM,2.3 nM,,,,,
"CC(O)(CS(=O)(=O)c1ccc(NC(=O)c2ccccc2)cc1)C(=O)NO (stereo not shown) [Example 16, N-[4-[[2-hydroxy-3-(hydroxyamino)-2-methyl-3-oxopropyl]-sulfonyl]phenyl]benzamide]",110 nM,> 10000 nM,1160 nM,0.8 nM,,,,41.6%,
"CC(O)(CS(=O)(=O)c1ccc(NC(=O)c2ccc(Cl)nc2)cc1)C(=O)NO (stereo not shown) [Example 22, 6-chloro-N-(4-[[2-hydroxy-3-(hydroxyamino)-2-methyl-3-oxopropyl]sulfonyl]phenyl]-3-pyridinecarboxamide]",280 nM,> 10000 nM,,6.7 nM,,,,,
COc1cccc(C(=O)Nc2ccc(S(=O)(=O)CC(C)(O)C(=O)NO)cc2)c1 (stereo not shown) [Example 27],666 nM,> 10000 nM,,10 nM,,,,,
CC(O)(CS(=O)(=O)c1ccc(NC(=O)c2cccc(F)c2)cc1)C(=O)NO (stereo not shown) [Example 29],80 nM,> 10000 nM,,1.8 nM,,,,,
"Cc1ccc(NC(=O)Nc2ccc(S(=O)(=O)CC(C)(O)C(=O)NO)cc2)cc1 (stereo not shown) [Example 21, N,2-dihydroxy-2-methyl-3-[[4-[[[(4-methylphenyl)amino]carbonyl]amino]phenyl]sulfonyl]propanamide]",3600 nM,> 10000 nM,,34 nM,,,,,
O=C(NO)C(O)CS(=O)(=O)c1ccc(Oc2ccccc2)cc1 (stereo not shown) [Example 9],0.2 nM,3000 nM,16 nM,0.4 nM,,,,61.1%,excellent activity
CC(O)(CS(=O)(=O)c1ccc(NC(=O)c2ccc(Cl)cc2)cc1)C(=O)NO (stereo not shown) [Example 18],13 nM,> 10000 nM,,0.5 nM,,,,,
"CCCc1ccc(C(=O)Nc2ccc(S(=O)(=O)CC(C)(O)C(=O)NO)cc2)cc1 (stereo not shown) [Example 26, N-[4-[[2-hydroxy-3-(hydroxyamino)-2-methyl-3-oxopropyl]-sulfonyl]phenyl]4-propylbenzamide]",1.2 nM,> 10000 nM,,0.1 nM,,,,,
"Cc1ccccc1NC(=O)Nc1ccc(S(=O)(=O)CC(C)(O)C(=O)NO)cc1 (stereo not shown) [Example 19, N,2-dihydroxy-2-methyl-3-[[4-[[[(2-methylphenyl)amino]carbonyl]amino]phenyl]sulfonyl]propanamide]",10000 nM,> 10000 nM,,2600 nM,,,,,
"CC(C)CC(=O)Nc1ccc(S(=O)(=O)CC(C)(O)C(=O)NO)cc1 (stereo not shown) [Example 17, N-[4-[[2-hydroxy-3-(hydroxyamino)-2-methyl-3-oxopropyl]sulfonyl]phenyl]-3-methylbutanamide]",900 nM,> 10000 nM,,400 nM,,,,,
"CCCCOc1ccc(C(=O)Nc2ccc(S(=O)(=O)CC(C)(O)C(=O)NO)cc2)cc1 (stereo not shown) [Example 25, 4-butoxy-N-[4-[[2-hydroxy-3-(hydroxyamino)-2-methyl-3-oxopropyl]sulfonyl]phenyl]benzamide]",1.2 nM,> 10000 nM,,0.2 nM,,,,,

# Reference: US6362183B1, “Aromatic sulfonyl alpha-hydroxy hydroxamic acid compounds” (G. D. Searle & Company, priority 1997, dated 2002)
